Measured values published in US7683065B2, “Pyridines useful as modulators of ion channels” (Vertex Pharmaceuticals Incorporated, priority 2005, dated 2010).
Like-named read-outs stand apart in the source and are kept apart here.

How the values were obtained:
[1] = biological target: T1, NaV1.8 (Homo sapiens, UniProt Q9Y5Y9); experiment: Activity against NaV 1.8 channel (NaV inhibition assays, Table 4); type: cell-based
Description: Compounds of the invention are useful as antagonists of voltage-gated sodium ion channels. Antagonist properties of test compounds were assessed as follows. Cells expressing the NaV of interest were placed into microtiter plates. After an incubation period, the cells were stained with fluorescent dyes sensitive to the transmembrane potential. The test compounds were added to the microtiter plate. The cells were stimulated with either a chemical or electrical means to evoke a NaV dependent membrane potential change from unblocked channels, which was detected and measured with trans-membrane potential-sensitive dyes. Antagonists were detected as a decreased membrane potential response to the stimulus. The optical membrane potential assay utilized voltage-sensitive FRET sensors described by Gonzalez and Tsien (See Gonzalez, J. E. and R. Y. Tsien (1995) “Voltage sensing by fluorescence resonance energy transfer in single cells” Biophys J 69(4): 1272-80, and Gonzalez, J. E. and R. Y. Tsien (1997) “Improved indicators of cell membrane potential that use fluorescence resonance energy transfer” Chem Biol 4(4): 269-77) in combination with instrumentation for measuring fluorescence changes such as the Voltage/Ion Probe Reader (VIPR®) (See, Gonzalez, J. E., K. Oades, et al. (1999) “Cell-based assays and instrumentation for screening ion-channel targets” Drug Discov Today 4(9): 431439).
24 hours before the assay on VIPR, CHO cells endogenously expressing a NaV1.2 type voltage-gated NaV are seeded in 96-well poly-lysine coated plates at 60,000 cells per well. Other subtypes are performed in an analogous mode in a cell line expressing the NaV of interest. • 1) On the day of the assay, medium is aspirated and cells are washed twice with 225 μL of Bath Solution #2 (BS#2). • 2) A 15 uM CC2-DMPE solution is prepared by mixing 5 mM coumarin stock solution with 10% Pluronic 127 1:1 and then dissolving the mix in the appropriate volume of BS#2. • 3) After bath solution is removed from the 96-well plates, the cells are loaded with 80 μL of the CC2-DMPE solution. Plates are incubated in the dark for 30 minutes at room temperature. • 4) While the cells are being stained with coumarin, a […] oxonol solution in BS#2 is prepared. In addition to DiSBAC2(3), this solution should contain 0.75 mM ABSC1 and […] veratridine (prepared from 10 mM EtOH stock, Sigma #V-5754). • 5) After 30 minutes, CC2-DMPE is removed and the cells are washed twice with 225 μL of BS#2. […] The cells are then incubated for 20-30 minutes. • 7) Once the incubation is complete, the cells are ready to be assayed on VIPR® with a sodium addback protocol. […]
The following is an example of how NaV1.3 inhibition activity is measured using the optical membrane potential method#2. […]

[2] = tested on: neuropathic pain; conditions: in vivo; cited from earlier work
[3] = biological target: NaV1.3 (Homo sapiens, UniProt Q9NY46); conditions: read-out: TTX IC50; cited from earlier work
Sequence of NaV1.3 (Q9NY46 whole entry, looked up): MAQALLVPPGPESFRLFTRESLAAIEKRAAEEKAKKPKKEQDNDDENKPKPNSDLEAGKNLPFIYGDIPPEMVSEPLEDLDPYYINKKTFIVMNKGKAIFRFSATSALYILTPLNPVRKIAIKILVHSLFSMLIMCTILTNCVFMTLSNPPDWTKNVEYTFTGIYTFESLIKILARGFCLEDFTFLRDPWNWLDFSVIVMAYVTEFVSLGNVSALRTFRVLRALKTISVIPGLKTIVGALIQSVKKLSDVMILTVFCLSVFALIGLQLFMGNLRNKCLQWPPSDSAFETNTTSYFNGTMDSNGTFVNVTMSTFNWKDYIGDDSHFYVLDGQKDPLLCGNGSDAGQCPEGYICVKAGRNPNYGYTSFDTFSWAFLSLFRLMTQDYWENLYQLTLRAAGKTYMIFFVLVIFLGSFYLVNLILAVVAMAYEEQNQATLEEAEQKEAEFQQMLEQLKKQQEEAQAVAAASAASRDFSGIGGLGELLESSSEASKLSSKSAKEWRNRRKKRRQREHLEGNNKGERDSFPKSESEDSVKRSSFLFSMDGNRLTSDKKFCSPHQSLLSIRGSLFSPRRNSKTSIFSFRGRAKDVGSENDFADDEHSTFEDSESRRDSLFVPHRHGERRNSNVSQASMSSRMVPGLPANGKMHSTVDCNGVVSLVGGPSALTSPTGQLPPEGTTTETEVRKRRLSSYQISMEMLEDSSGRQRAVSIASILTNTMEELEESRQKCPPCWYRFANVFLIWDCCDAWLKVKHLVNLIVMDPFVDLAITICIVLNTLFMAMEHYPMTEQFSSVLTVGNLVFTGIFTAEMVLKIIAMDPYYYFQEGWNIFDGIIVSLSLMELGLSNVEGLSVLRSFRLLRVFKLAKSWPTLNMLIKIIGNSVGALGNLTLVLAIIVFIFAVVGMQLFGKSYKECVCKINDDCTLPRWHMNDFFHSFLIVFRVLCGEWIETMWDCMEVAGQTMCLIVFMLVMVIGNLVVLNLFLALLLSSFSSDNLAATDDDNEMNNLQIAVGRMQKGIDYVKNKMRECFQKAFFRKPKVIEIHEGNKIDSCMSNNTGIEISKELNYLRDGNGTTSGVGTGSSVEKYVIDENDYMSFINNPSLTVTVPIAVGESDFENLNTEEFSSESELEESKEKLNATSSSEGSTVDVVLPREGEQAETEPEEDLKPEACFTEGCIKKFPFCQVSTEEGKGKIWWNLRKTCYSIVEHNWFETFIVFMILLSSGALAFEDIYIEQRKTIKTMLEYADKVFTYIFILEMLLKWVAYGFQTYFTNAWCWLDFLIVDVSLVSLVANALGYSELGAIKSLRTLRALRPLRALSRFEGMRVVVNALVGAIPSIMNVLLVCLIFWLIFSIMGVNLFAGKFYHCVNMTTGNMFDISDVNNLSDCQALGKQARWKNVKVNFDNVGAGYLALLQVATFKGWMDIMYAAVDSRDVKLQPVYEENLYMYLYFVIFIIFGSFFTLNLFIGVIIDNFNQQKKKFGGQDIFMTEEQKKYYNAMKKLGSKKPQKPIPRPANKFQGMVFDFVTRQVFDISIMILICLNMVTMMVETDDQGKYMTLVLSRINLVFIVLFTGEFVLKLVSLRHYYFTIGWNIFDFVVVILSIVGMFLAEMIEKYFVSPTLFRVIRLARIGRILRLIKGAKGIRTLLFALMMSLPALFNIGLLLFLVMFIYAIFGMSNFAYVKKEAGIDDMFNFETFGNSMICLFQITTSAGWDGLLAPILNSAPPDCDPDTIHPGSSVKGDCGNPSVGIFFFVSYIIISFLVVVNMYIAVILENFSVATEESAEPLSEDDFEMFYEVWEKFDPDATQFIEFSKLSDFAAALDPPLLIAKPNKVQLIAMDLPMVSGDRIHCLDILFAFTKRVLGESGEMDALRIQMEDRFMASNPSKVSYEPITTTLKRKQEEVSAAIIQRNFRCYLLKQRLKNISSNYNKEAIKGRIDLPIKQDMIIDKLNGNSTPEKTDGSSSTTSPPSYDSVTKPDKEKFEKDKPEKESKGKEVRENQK

[4] = biological target: T1, NaV1.8; conditions: read-out: TTX IC50; cited from earlier work

T1 sequence (Q9Y5Y9 whole entry, looked up): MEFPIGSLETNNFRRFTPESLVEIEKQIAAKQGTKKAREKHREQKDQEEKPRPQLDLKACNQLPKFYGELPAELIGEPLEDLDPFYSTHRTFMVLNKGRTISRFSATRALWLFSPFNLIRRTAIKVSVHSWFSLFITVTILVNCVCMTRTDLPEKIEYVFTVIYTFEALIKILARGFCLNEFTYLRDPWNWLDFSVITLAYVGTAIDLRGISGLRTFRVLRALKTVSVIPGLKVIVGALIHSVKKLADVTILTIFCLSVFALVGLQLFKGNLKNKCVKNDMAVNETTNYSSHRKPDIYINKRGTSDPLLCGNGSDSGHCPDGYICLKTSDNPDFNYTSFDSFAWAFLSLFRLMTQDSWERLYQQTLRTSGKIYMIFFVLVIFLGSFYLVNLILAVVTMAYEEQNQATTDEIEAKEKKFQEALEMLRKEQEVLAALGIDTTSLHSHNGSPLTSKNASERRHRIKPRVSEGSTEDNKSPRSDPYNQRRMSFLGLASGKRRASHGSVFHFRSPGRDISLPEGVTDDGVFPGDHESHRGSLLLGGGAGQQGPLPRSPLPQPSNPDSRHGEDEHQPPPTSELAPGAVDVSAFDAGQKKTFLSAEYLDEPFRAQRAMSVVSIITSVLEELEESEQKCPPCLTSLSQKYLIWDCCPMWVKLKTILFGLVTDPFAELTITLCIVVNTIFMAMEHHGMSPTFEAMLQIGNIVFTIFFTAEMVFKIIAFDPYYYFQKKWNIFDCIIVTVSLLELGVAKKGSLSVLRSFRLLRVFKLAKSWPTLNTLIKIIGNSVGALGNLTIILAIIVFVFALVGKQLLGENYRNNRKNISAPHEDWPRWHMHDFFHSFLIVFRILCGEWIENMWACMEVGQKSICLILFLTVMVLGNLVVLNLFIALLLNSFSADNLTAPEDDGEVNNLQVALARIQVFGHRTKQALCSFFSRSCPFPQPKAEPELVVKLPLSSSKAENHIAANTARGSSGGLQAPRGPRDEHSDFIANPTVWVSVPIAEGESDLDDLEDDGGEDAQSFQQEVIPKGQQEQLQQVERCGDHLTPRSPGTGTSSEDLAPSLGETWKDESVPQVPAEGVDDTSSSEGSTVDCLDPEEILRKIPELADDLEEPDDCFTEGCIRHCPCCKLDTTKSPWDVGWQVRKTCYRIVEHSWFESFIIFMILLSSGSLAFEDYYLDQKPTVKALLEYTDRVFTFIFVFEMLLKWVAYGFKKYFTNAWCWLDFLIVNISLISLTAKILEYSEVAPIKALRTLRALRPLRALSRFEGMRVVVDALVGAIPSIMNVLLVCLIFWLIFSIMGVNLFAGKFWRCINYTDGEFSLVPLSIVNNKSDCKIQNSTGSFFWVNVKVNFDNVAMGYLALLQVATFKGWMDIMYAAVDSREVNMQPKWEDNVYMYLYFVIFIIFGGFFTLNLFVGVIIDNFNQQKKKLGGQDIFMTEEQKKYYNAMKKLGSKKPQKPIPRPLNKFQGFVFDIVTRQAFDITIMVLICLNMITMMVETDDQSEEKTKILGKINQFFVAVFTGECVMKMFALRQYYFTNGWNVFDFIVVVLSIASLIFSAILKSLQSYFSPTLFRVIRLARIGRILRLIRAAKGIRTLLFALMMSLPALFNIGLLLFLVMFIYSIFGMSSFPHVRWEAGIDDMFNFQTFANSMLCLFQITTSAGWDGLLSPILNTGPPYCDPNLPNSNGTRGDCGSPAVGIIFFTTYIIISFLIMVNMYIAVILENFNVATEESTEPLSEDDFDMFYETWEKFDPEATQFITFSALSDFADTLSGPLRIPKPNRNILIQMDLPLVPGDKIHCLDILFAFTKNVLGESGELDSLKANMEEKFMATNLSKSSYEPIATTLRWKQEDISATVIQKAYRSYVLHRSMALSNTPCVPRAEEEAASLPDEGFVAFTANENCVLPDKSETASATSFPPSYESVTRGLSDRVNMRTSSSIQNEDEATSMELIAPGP

In the case of `CC(C)COC(=O)N1CCN(c2ccnc(-c3ccccc3O)c2)CC1` [Compound 1, Isobutyl 4-(2-(2-hydroxyphenyl)pyridin-4-yl)piperazine-1-carboxylate], the IC50 [1] is reported as over 15 µM.
With `CC(C)COC(=O)N1CCN(c2cccc(-c3ccccc3O)n2)CC1` [Compound 3, 4-[6-(2-hydroxyphenyl)-2-pyridyl]piperazine-1-carboxylic acid isobutyl ester] the IC50 [1] was 10 to 15 µM.
With `CC(C)C[C@@H](O)C(=O)N1CCN(c2cccc(-c3ccccc3O)n2)CC1` [Compound 4, (R)-2-hydroxy-1-(4-(6-(2-hydroxyphenyl)pyridin-2-yl)piperazin-1-yl)-4-methylpentan-1-one] the IC50 [1] was under 10 µM.
With `CC(C)COC(=O)N1CCN(c2cc(-c3ccccc3O)ccn2)CC1` [Compound 5, Isobutyl-4-[4′-(2-hydroxyphenyl)-pyridin-2′-yl]-piperazine-1-carboxylate] the IC50 [1] was over 15 µM.
For `NCC1(CC(=O)O)CCCCC1` [Gabapentin], the “share of patients in whom it works” value [2] is listed as 60%.
For `NC1=N[C@H](O)[C@H]2[C@H]3O[C@]4(O)O[C@@H]([C@@H](O)[C@@]2(N1)[C@@H]4O)[C@]3(O)CO` [TTX, tetrodotoxin], the IC50 [3] is given as 0.015 µM and the IC50 [4] is given as over 50 µM.
